# Values quoted from earlier work in US20050136109A1, “Extended release tablet formulations of venlafaxine” (Wyeth, priority 2003, published 2005).
# Structures can show the parent of a compound that is named as a salt.
# Conditions: plural daily dosing regimen, immediate release tablets
compound,measurement,value
"COc1ccc(C(CN(C)C)C2(O)CCCCC2)cc1 (centres unmarked) [venlafaxine hydrochloride, 1-[2-(dimethylamino)-1-(4-methoxyphenyl)ethyl]-cyclo-hexanol]","Vomiting, patients experiencing",about seventeen
same,"nausea, patients experiencing",about forty five
